Structures can show the parent of a compound that is named as a salt.
How the values were obtained:
Type in all cases: cell-based
[1] = target: T1, Cav2.2 (Rattus norvegicus, UniProt Q02294); experiment: whole-cell patch clamp, Ba2+ current, external and internal application
T1 construct: gene Cacna1b; rat Cav2.2 stably expressed with β3 and α2δ−1 subunits in tsA201 cell line; with β3 subunit and α2δ−1 subunit

[2] = target: T2, Nav1.7 (Homo sapiens, UniProt Q15858); experiment: whole-cell patch clamp, external application; KI estimated from shift in channel availability
T2 construct: gene SCN9A; human Nav1.7 stably expressed in HEK cell line

[3] = target: T1, Cav2.2; experiment: whole-cell patch clamp, Ba2+ current
[4] = target: T2, Nav1.7; experiment: whole-cell patch clamp, use-dependent inhibition at […] Hz

T2 sequence (Q15858 whole entry): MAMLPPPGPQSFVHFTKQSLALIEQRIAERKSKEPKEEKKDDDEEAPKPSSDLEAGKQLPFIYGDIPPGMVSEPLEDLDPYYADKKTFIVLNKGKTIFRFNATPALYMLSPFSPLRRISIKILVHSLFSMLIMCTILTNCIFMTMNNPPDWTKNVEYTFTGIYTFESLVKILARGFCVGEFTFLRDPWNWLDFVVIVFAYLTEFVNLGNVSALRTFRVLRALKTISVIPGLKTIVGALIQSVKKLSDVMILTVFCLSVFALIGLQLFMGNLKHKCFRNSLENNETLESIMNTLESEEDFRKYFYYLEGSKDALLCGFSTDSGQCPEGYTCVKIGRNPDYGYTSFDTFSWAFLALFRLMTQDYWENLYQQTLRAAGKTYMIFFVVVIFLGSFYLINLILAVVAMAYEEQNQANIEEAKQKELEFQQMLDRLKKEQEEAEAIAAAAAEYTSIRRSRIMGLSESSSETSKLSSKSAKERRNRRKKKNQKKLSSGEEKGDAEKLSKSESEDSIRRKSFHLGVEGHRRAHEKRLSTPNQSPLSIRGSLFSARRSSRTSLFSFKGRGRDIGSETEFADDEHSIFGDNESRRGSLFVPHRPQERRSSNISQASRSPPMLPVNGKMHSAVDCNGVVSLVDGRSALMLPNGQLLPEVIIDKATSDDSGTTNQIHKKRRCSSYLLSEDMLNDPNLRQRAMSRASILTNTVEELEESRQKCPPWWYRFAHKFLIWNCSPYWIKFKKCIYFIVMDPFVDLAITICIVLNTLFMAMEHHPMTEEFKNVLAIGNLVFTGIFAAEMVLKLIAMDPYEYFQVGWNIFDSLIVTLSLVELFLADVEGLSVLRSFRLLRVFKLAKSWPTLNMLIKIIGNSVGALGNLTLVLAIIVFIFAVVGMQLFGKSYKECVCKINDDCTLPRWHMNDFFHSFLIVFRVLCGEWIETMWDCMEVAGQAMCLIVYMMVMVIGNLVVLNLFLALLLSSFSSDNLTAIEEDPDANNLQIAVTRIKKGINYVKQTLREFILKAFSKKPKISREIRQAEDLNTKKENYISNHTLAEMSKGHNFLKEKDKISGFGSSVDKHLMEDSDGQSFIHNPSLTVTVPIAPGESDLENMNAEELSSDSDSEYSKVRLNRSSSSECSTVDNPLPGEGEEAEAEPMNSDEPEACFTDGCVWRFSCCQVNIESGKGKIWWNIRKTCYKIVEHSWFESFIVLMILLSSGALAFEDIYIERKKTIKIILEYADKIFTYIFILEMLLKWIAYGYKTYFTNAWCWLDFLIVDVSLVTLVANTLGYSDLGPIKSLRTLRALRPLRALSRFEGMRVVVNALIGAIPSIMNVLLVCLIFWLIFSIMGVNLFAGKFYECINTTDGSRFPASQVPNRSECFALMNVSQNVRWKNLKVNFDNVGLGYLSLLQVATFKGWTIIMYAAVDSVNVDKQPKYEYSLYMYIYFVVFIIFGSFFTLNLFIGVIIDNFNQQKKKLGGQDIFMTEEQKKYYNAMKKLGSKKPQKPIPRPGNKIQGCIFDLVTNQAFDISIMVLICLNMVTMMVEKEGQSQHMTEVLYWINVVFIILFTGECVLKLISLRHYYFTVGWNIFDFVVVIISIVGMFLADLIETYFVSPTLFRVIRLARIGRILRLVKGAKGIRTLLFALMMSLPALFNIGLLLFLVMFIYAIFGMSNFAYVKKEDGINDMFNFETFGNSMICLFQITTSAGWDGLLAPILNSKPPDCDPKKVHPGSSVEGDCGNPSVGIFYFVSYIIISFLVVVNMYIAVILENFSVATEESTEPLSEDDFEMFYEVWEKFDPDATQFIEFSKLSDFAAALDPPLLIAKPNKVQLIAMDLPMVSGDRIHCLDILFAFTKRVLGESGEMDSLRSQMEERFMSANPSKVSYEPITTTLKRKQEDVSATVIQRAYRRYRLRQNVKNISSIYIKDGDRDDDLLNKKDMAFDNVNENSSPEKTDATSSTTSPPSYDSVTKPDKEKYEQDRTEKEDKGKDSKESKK

Compound: COc1ccc(CNC(=O)C(CSCC2CCCC2)[N+](C)(C)CCC(C)(C)C)cc1 (centres unmarked) [CNCB-2, [2-Cyclopentylmethylsulfanyl-1-(4-methoxy-benzylcarbamoyl)-ethyl]−(3,3-dimethyl-butyl)-dimethyl-ammonium, chloride salt]
- whole-cell patch clamp, Ba2+ current, external and internal application [1]: current reduced to 5 ± 2% of control by 100
- Kd [2]: 710 nM

Compound: COc1ccc(CNC(=O)C(CSCC2CCCC2)NCCC(C)(C)C)cc1 (centres unmarked) [NNCB-2, 3-Cyclopentylmethylsulfanyl-2-(3,3-dimethyl-butylamino)-N-(4-methoxy-benzyl)-propionamide]
- inhibition at 10 µM [3]: ~60%

Compound: CCCCN1CCCCC1C(=O)Nc1c(C)cccc1C (centres unmarked) [bupivacaine]
- whole-cell patch clamp, use-dependent inhibition at 10 Hz [4]: current reduced to 22 ± 4% (no drug 77 ± 3%) by 10

Compound: CCN(CC)CC(=O)Nc1c(C)cccc1C [lidocaine]
- whole-cell patch clamp, use-dependent inhibition at 10 Hz [4]: current reduced to 57 ± 7% of control (no drug 77 ± 3%) by 30
